Consider 2 sequences from patent publication EP0987275B1, “Molecules that home to a selected organ or tissue in vivo” (LA JOLLA CANCER RESEARCH FOUNDATION, priority 1995, dated 2008).

Assay [1] has as its system Human 435 breast carcinoma cells. Description: Competition of RGD phage tumor homing by coinjected free peptide. The following applies: coinjection of 500 µg free peptide. Format: in vivo, nude mice. Here is the method:
Human 435 breast carcinoma cells were inoculated into the mammary fat pad of nude mice. When the tumors attained a diameter of about 1 cm, phage expressing a specific RGD-containing peptide were administered to the tumor bearing mouse. Similar results to those discussed below also were obtained with nude mice bearing tumors formed by implantation of human melanoma C8161 cells or by implantation of mouse B16 melanoma cells.
1 x 10^9 phage expressing the RGD-containing peptide, […] (SEQ ID NO: 57; see, Koivunen et al., supra, 1995) or control (insertless) phage were injected intravenously (iv) into the mice and allowed to circulate for 4 min. The mice then were snap frozen while under anesthesia, and various organs, including tumor, brain and kidney, were removed and the phage present in the organs was quantitated (see Pasqualini and Ruoslahti, supra, 1996).

A further assay relates to brain. As to the kind of experiment: Homing of 125I-peptide/RBC complex to brain, with peptide competition. Conditions: 10 mM unlabeled peptide. Format: in vivo, mouse. Here is the method:
The synthetic cyclic CLSSRLDAC (SEQ ID NO: 3) peptide (1 mg) was labeled with iodine-125 using the Bolton and Hunter reagent (Amersham; Arlington Heights IL). Labeled peptide was purified by reverse phase HPLC on Sep-Pak™ cartridges (Waters, Millipore Corp.; Milford PA) and the ^125I-peptide (200 µg) was coupled to 1 ml glutaraldehyde-stabilized sheep RBC (Sigma Chemical Co.; St. Louis MO) according to the manufacturer's instructions.
Fifty µl ^125I-peptide/RBC (200,000 cpm), alone or with 10 mM of unlabeled CLSSRLDAC (SEQ ID NO: 3), which is a brain homing peptide, or CVRLNSLAC (SEQ ID NO: 43), which has no brain homing activity, was injected into the tail vein. After 2 min, each mouse was perfused through the heart with 50 ml DMEM and the brain and kidney were removed and assayed for radioactivity.

ACDCRGDCFCG: the “reduction of the amount of RGD phage in the tumor by coinjected free peptide” value in assay [1] is “about tenfold”.

CVRLNSLAC: in the assay with brain, the “effect of coadministered unlabeled peptide on brain homing of the CLSSRLDAC/RBC complex” value is reported as “no effect” and the “effect of coadministered unlabeled peptide on complex localizing to the kidney” value is “no effect”.
